Measured values reported in patent US5747493A, “Dopamine re-uptake inhibitor” (Pola Chemical Industries, Inc., priority 1993, dated 1998).
pIC50: −log10 of the molar value. Counter-ions that a name gives are not always drawn.

Experiments:
[1] = test system: [^3 H]-DA re-uptake; test: inhibition of [^3 H]-DA re-uptake in corpus striatum homogenate; format: biochemical, Sprague-Dawley rats; details: for amount of DA re-uptake: 2 min
Description: Investigation as to inhibition of [^3 H]-DA re-uptake
Corpus striatum samples of Sprague-Dawley rats (SD rats) were used to investigate the inhibition of [^3 H]-DA re-uptake.
More specifically, after an SD rat (aged 8 weeks, male) was decapitated, its corpus striatum was taken out while keeping on ice. A Krebs-Henseleit buffer in an amount ten times of the corpus striatum was added thereto to homogenize the resultant mixture by means of a Teflon homogenizer, thereby obtaining a homogenate. To this homogenate, were added nialamide as a monoamine oxidase inhibitor, ascorbic acid as an antioxidant and a test agent to preincubate the resulting mixture at 37° C. for 5 minutes. […] After the reaction mixture was filtered by means of a cell harvester in which a filter had been set, the filter was washed twice with physiological saline. The washed filter was placed in a vial, and 10 ml of Aquazol-2 were added to leave the filter to stand overnight. Thereafter, the radioactivity of the sample was measured by a liquid scintillation counter.
Compound 1 according to the present invention was used as a test agent. The test agent was prepared into a 10^-2 M solution in dimethyl sulfoxide, and the solution was diluted with a Krebs-Henseleit buffer before its use. With the concentrations of the test substances, 11 points were selected within a range of from 10^-10 M to 10^-5 M to plot the concentration versus the amount of DA re-uptake. From this plot, an IC50 value was determined.

[2] = test system: Wistar rats (male); test: quantity of spontaneous movement; format: in vivo; details: intraperitoneal, 3 hours; for Number of times of rising: control 2; for Number of times of traversing: control 20
Source text: Determination of quantity of spontaneous movement
Wistar rats (male) aged 7 weeks were used to confirm the effect of Compound 1 on spontaneous movement. […] The number of times of traversing sections of a floor and the number of times of rising were used as indices of the quantity of movement. The test agent was used in doses of from 0.1 mmol/kg down to 0.01 mmol/kg. Besides, physiological saline alone was used as a control.

Structure (SMILES): OC(CNc1ccccc1)CN1CCN(CCCC(c2ccc(F)cc2)c2ccc(F)cc2)CC1 (stereo not drawn) [Compound 1, 1-[4,4-Bis(4-fluorophenyl)-butyl]-4-(2-hydroxy-3-phenyl-aminopropyl)piperazinedihydrochloride]
- pIC50 ([1]; SD rat corpus striatum homogenate, 37° C., 2 minutes reaction): 8.17
- amount of DA re-uptake ([1]; concentration of test substance -log (mol) 6, 1 µM): 0%
- amount of DA re-uptake ([1]; concentration of test substance -log (mol) 6.5, 0.316 µM): 0%
- amount of DA re-uptake ([1]; concentration of test substance -log (mol) 7, 0.1 µM): 2%
- amount of DA re-uptake ([1]; concentration of test substance -log (mol) 8, 0.01 µM): 38%
- amount of DA re-uptake ([1]; concentration of test substance -log (mol) 9, 0.001 µM): 80%
- amount of DA re-uptake ([1]; concentration of test substance -log (mol) 10, 0.0001 µM): 92%
- inhibition of DA re-uptake (in words) ([1]; conclusion from IC50 and Table 3): potent activities of inhibiting DA re-uptake
- Number of times of rising ([2]; 0.01 mmol/kg): 69 times
- Number of times of traversing ([2]; 0.01 mmol/kg): 253 times
- Number of times of rising ([2]; 0.03 mmol/kg): 156 times
- Number of times of traversing ([2]; 0.03 mmol/kg): 267 times
- Number of times of rising ([2]; 0.1 mmol/kg): 121 times
- Number of times of traversing ([2]; 0.1 mmol/kg): 287 times
- quantity of spontaneous movement (in words) ([2]; 0.01 to 0.1 mmol/kg, hydrochloride): enhances the quantity of the spontaneous movement to a marked extent
